Values of other authors, collected in patent publication US11911501B1, “Biocompatible resin composition and method of manufacturing dissolvable microneedles for transdermal delivery using biocompatible resin” (Florida A&M University, priority 2020, dated 2024).

Tested on: clonal SV 40 large T-antigen transfected human pulp-derived cells (tHPC)
Settings: reference [1]

For `Cc1cc(C)c(C(=O)P(=O)(c2ccccc2)c2ccccc2)c(C)c1` [TPO, diphenyl(2,4,6-trimethylbenzoyl)phosphine oxide], the toxicity is given as “cause toxicity”.
